From patent US9212182B2, “Bicyclic sulfonamide compounds as sodium channel inhibitors” (AMGEN INC., priority 2013, dated 2015)

Biological target: Nav 1.7 (Homo sapiens (Human), UniProt Q15858)
Assay: in-vitro Nav 1.7 PX (IC50)
Assay type: cell-based
Details: in-vitro Nav 1.7 PX data

Sequence of Nav 1.7 (Q15858 whole entry): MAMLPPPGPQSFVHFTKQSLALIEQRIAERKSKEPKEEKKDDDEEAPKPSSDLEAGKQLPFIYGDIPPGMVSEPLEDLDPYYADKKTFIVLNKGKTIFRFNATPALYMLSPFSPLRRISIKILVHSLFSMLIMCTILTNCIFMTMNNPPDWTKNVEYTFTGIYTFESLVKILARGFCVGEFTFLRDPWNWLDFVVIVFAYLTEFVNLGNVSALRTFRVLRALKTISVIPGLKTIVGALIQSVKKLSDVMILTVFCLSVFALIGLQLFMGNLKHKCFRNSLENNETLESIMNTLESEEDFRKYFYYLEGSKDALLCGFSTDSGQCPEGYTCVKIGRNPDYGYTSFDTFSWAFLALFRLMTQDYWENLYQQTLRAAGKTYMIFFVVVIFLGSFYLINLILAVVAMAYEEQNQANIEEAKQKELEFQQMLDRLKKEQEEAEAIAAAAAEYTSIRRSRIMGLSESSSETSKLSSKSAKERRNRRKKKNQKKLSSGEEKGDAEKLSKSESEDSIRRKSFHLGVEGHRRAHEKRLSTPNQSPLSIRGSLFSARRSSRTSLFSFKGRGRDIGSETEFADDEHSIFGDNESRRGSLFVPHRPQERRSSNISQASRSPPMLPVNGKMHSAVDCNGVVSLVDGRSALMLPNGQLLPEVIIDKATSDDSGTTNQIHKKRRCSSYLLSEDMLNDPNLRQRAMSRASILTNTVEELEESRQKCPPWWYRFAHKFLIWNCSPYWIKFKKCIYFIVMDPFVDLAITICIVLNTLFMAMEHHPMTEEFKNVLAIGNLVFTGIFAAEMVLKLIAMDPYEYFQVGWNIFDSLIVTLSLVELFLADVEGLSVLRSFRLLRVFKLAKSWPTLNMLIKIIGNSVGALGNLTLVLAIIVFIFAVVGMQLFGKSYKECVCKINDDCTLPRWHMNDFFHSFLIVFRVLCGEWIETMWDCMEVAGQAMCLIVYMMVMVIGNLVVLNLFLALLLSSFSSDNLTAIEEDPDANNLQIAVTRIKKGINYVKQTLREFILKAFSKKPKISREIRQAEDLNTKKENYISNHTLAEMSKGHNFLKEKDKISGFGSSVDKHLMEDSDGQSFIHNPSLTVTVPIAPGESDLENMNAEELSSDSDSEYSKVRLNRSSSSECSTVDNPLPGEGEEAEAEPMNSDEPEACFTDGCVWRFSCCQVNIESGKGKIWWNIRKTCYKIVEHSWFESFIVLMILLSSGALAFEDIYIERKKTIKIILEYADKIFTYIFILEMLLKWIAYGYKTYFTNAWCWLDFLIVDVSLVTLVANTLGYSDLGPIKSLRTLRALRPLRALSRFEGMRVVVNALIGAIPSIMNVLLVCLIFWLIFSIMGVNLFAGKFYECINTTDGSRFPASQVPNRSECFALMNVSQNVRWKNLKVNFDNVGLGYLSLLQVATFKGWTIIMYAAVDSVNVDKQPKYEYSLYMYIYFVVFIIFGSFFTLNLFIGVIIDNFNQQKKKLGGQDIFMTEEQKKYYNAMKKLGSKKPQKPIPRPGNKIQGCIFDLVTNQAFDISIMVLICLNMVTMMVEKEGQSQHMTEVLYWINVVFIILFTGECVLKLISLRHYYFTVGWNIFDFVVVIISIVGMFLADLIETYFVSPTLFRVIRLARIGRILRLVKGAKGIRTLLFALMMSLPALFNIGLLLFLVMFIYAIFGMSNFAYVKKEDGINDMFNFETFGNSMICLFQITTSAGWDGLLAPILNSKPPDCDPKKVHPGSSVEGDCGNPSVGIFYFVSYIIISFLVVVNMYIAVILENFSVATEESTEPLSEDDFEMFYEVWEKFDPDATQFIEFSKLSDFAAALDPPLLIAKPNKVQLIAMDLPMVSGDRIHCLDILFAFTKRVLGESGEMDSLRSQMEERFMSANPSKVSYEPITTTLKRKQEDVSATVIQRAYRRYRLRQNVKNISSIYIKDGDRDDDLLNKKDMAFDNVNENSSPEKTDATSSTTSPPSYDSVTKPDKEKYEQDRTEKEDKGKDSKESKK

IC50	SMILES
22 nM	COc1cc(-c2cccc(C(F)(F)F)c2)ccc1-n1c(=O)ccc2cc(S(=O)(=O)Nc3ncon3)ccc21 [Example 919, 1-(3-methoxy-3′-(trifluoromethyl)-4-biphenylyl)-N-1,2,4-oxadiazol-3-yl-2-oxo-1,2-dihydro-6-quinolinesulfonamide]
60 nM	COc1cc(-c2cc(F)cc(Cl)c2)c(F)cc1-n1c(=O)ccc2cc(S(=O)(=O)Nc3ccc(F)cn3)ccc21 [Example 920, 1-(3′-chloro-2,5′-difluoro-5-methoxy-4-biphenylyl)-N-(5-fluoro-2-pyridinyl)-2-oxo-1,2-dihydro-6-quinolinesulfonamide]
37 nM	COc1cc(-c2cc(F)cc(Cl)c2)c(F)cc1-n1c(=O)ccc2cc(S(=O)(=O)Nc3ccsn3)ccc21 [Example 921, 1-(3′-chloro-2,5′-difluoro-5-methoxy-4-biphenylyl)-N-3-isothiazolyl-2-oxo-1,2-dihydro-6-quinolinesulfonamide]
4 nM	COc1cc(-c2cc(F)cc(Cl)c2)c(F)cc1-n1c(=O)ccc2cc(S(=O)(=O)Nc3cnsn3)ccc21 [Example 922, 1-(3′-chloro-2,5′-difluoro-5-methoxy-4-biphenylyl)-2-oxo-N-1,2,5-thiadiazol-3-yl-1,2-dihydro-6-quinolinesulfonamide]
12 nM	COc1cc(Cl)cc(-c2ccc(-n3c(=O)ccc4cc(S(=O)(=O)Nc5ncccn5)ccc43)c(OC)c2)c1 [Example 923, 1-(3′-chloro-3,5′-dimethoxy-4-biphenylyl)-2-oxo-N-2-pyrimidinyl-1,2-dihydro-6-quinolinesulfonamide]
22 nM	COc1cc(Cl)cc(-c2ccc(-n3c(=O)ccc4cc(S(=O)(=O)Nc5ncco5)ccc43)c(OC)c2)c1 [Example 925, 1-(3′-chloro-3,5′-dimethoxy-4-biphenylyl)-N-1,3-oxazol-2-yl-2-oxo-1,2-dihydro-6-quinolinesulfonamide]
6 nM	COc1cc(Cl)cc(-c2cc(OC)c(-n3c(=O)ccc4cc(S(=O)(=O)Nc5ncco5)ccc43)cc2F)c1 [Example 926, 1-(3′-chloro-2-fluoro-5,5′-dimethoxy-4-biphenylyl)-N-1,3-oxazol-2-yl-2-oxo-1,2-dihydro-6-quinolinesulfonamide]
15 nM	COc1cc(Cl)cc(-c2ccc(-n3c(=O)ccc4cc(S(=O)(=O)Nc5ncc(F)cn5)ccc43)c(OC)c2)c1 [Example 927, 1-(3′-chloro-3,5′-dimethoxy-4-biphenylyl)-N-(5-fluoro-2-pyrimidinyl)-2-oxo-1,2-dihydro-6-quinolinesulfonamide]
8 nM	COc1cc(Cl)cc(-c2ccc(-n3c(=O)ccc4cc(S(=O)(=O)Nc5cccnn5)ccc43)c(OC)c2)c1 [Example 928, 1-(3′-chloro-3,5′-dimethoxy-4-biphenylyl)-2-oxo-N-3-pyridazinyl-1,2-dihydro-6-quinolinesulfonamide]
23 nM	COc1cc(Cl)cc(-c2cc(OC)c(-n3c(=O)ccc4cc(S(=O)(=O)Nc5ncc(F)cn5)ccc43)cc2F)c1 [Example 929, 1-(3′-chloro-2-fluoro-5,5′-dimethoxy-4-biphenylyl)-N-(5-fluoro-2-pyrimidinyl)-2-oxo-1,2-dihydro-6-quinolinesulfonamide]
14 nM	COc1cc(Cl)cc(-c2cc(OC)c(-n3c(=O)ccc4cc(S(=O)(=O)Nc5cccnn5)ccc43)cc2F)c1 [Example 930, 1-(3′-chloro-2-fluoro-5,5′-dimethoxy-4-biphenylyl)-2-oxo-N-3-pyridazinyl-1,2-dihydro-6-quinolinesulfonamide]
128 nM	COc1cc(-c2ccc(Cl)c(C)c2)c(F)cc1-n1c(=O)ccc2cc(S(=O)(=O)Nc3cc(C)on3)ccc21 [Example 931, 1-(4′-chloro-2-fluoro-5-methoxy-3′-methyl-4-biphenylyl)-N-(5-methyl-3-isoxazolyl)-2-oxo-1,2-dihydro-6-quinolinesulfonamide]
78 nM	COc1cc(-c2ccc(Cl)c(C)c2)c(F)cc1-n1c(=O)ccc2cc(S(=O)(=O)Nc3cscn3)ccc21 [Example 932, 1-(4′-chloro-2-fluoro-5-methoxy-3′-methyl-4-biphenylyl)-2-oxo-N-1,3-thiazol-4-yl-1,2-dihydro-6-quinolinesulfonamide]

More lines, now with the values behind:

SMILES	IC50
COc1ccc(-c2ccc(C)c(Cl)c2)cc1-n1c(=O)ccc2cc(S(=O)(=O)Nc3ccon3)ccc21 [Example 885, 1-(3′-chloro-4-methoxy-4′-methyl-3-biphenylyl)-N-3-isoxazolyl-2-oxo-1,2-dihydro-6-quinolinesulfonamide]	12 nM
COc1ccc(-c2cccc(Cl)c2F)cc1-n1c(=O)ccc2cc(S(=O)(=O)Nc3ccon3)ccc21 [Example 887, 1-(3′-chloro-2′-fluoro-4-methoxy-3-biphenylyl)-N-3-isoxazolyl-2-oxo-1,2-dihydro-6-quinolinesulfonamide]	30 nM
COc1cc(-c2ccc(OC)c(-n3c(=O)ccc4cc(S(=O)(=O)Nc5ccon5)ccc43)c2)ccc1F [Example 889, 1-(4′-fluoro-3′,4-dimethoxy-3-biphenylyl)-N-3-isoxazolyl-2-oxo-1,2-dihydro-6-quinolinesulfonamide]	184 nM
COc1cc(-c2ccc(Cl)c(C#N)c2)c(F)cc1-n1c(=O)ccc2cc(S(=O)(=O)Nc3ncco3)ccc21 [Example 890, 1-(4′-chloro-3′-cyano-2-fluoro-5-methoxy-4-biphenylyl)-N-1,3-oxazol-2-yl-2-oxo-1,2-dihydro-6-quinolinesulfonamide]	84 nM
COc1ccc(-c2cccc(Cl)c2C)cc1-n1c(=O)ccc2cc(S(=O)(=O)Nc3ccon3)ccc21 [Example 891, 1-(3′-chloro-4-methoxy-2′-methyl-3-biphenylyl)-N-3-isoxazolyl-2-oxo-1,2-dihydro-6-quinolinesulfonamide]	20 nM
COc1cc(-c2ccc(Cl)c(C#N)c2)c(F)cc1-n1c(=O)ccc2cc(S(=O)(=O)Nc3ccnc(C)n3)ccc21 [Example 892, 1-(4′-chloro-3′-cyano-2-fluoro-5-methoxy-4-biphenylyl)-N-(2-methyl-4-pyrimidinyl)-2-oxo-1,2-dihydro-6-quinolinesulfonamide]	51 nM
COc1cc(-c2ccc(Cl)c(C#N)c2)c(F)cc1-n1c(=O)ccc2cc(S(=O)(=O)Nc3ncc(F)cn3)ccc21 [Example 893, 1-(4′-chloro-3′-cyano-2-fluoro-5-methoxy-4-biphenylyl)-N-(5-fluoro-2-pyrimidinyl)-2-oxo-1,2-dihydro-6-quinolinesulfonamide]	13 nM
COc1cc(-c2ccc(F)c(F)c2)ccc1-n1c(=O)ccc2cc(S(=O)(=O)Nc3ncco3)ccc21 [Example 894, 1-(3′,4′-difluoro-3-methoxy-4-biphenylyl)-N-1,3-oxazol-2-yl-2-oxo-1,2-dihydro-6-quinolinesulfonamide]	83 nM
COc1ccc(-c2cccc(Cl)c2C)cc1-n1c(=O)ccc2cc(S(=O)(=O)Nc3ccon3)ccc21 [Example 895, 1-(3′-chloro-4-methoxy-2′-methyl-3-biphenylyl)-N-3-isoxazolyl-2-oxo-1,2-dihydro-6-quinolinesulfonamide]	1840 nM
COc1cc(-c2ccc(F)c(F)c2)ccc1-n1c(=O)ccc2cc(S(=O)(=O)Nc3cccnn3)ccc21 [Example 896, 1-(3′,4′-difluoro-3-methoxy-4-biphenylyl)-2-oxo-N-3-pyridazinyl-1,2-dihydro-6-quinolinesulfonamide]	47 nM
COc1cc(-c2ccc(F)c(F)c2)ccc1-n1c(=O)ccc2cc(S(=O)(=O)Nc3ncccn3)ccc21 [Example 897, 1-(3′,4′-difluoro-3-methoxy-4-biphenylyl)-2-oxo-N-2-pyrimidinyl-1,2-dihydro-6-quinolinesulfonamide]	100 nM
COc1cc(-c2ccc(Cl)c(C#N)c2)c(F)cc1-n1c(=O)ccc2cc(S(=O)(=O)Nc3cc(C)ncn3)ccc21 [Example 898, 1-(4′-chloro-3′-cyano-2-fluoro-5-methoxy-4-biphenylyl)-N-(6-methyl-4-pyrimidinyl)-2-oxo-1,2-dihydro-6-quinolinesulfonamide]	44 nM
COc1cc(-c2ccc(F)c(F)c2)ccc1-n1c(=O)ccc2cc(S(=O)(=O)Nc3cc(C)ncn3)ccc21 [Example 899, 1-(3′,4′-difluoro-3-methoxy-4-biphenylyl)-N-(6-methyl-4-pyrimidinyl)-2-oxo-1,2-dihydro-6-quinolinesulfonamide]	107 nM
COc1cc(-c2ccc(F)c(F)c2)ccc1-n1c(=O)ccc2cc(S(=O)(=O)Nc3ccnc(C)n3)ccc21 [Example 900, 1-(3′,4′-difluoro-3-methoxy-4-biphenylyl)-N-(2-methyl-4-pyrimidinyl)-2-oxo-1,2-dihydro-6-quinolinesulfonamide]	285 nM
COc1ccc(-c2cc(F)cc(Cl)c2)cc1-n1c(=O)ccc2cc(S(=O)(=O)Nc3cccnn3)ccc21 [Example 902, 1-(3′-chloro-5′-fluoro-4-methoxy-3-biphenylyl)-2-oxo-N-3-pyridazinyl-1,2-dihydro-6-quinolinesulfonamide]	77 nM
COc1cc(-c2cccc(C(F)(F)F)c2)ccc1-n1c(=O)ccc2cc(S(=O)(=O)Nc3cnccn3)ccc21 [Example 915, 1-(3-methoxy-3′-(trifluoromethyl)-4-biphenylyl)-2-oxo-N-2-pyrazinyl-1,2-dihydro-6-quinolinesulfonamide]	31 nM
COc1cc(-c2cccc(C(F)(F)F)c2)ccc1-n1c(=O)ccc2cc(S(=O)(=O)Nc3ncco3)ccc21 [Example 916, 1-(3-methoxy-3′-(trifluoromethyl)-4-biphenylyl)-N-1,3-oxazol-2-yl-2-oxo-1,2-dihydro-6-quinolinesulfonamide]	50 nM
COc1cc(-c2cccc(C(F)(F)F)c2)ccc1-n1c(=O)ccc2cc(S(=O)(=O)Nc3ncc(F)cn3)ccc21 [Example 917, N-(5-fluoro-2-pyrimidinyl)-1-(3-methoxy-3′-(trifluoromethyl)-4-biphenylyl)-2-oxo-1,2-dihydro-6-quinolinesulfonamide]	31 nM
COc1cc(-c2cccc(C(F)(F)F)c2)ccc1-n1c(=O)ccc2cc(S(=O)(=O)Nc3ccc(F)cn3)ccc21 [Example 918, N-(5-fluoro-2-pyridinyl)-1-(3-methoxy-3′-(trifluoromethyl)-4-biphenylyl)-2-oxo-1,2-dihydro-6-quinolinesulfonamide]	93 nM
